Experiments:
adenosine A1 receptor = biological target: T1, adenosine A1 receptor (Rattus norvegicus, UniProt P25099); assay: Adenosine Receptor Binding - A1 Receptor Affinity (RBA 1), [3H]-CHA displacement; conditions: rat whole brain membranes, 1.0 nM [3H]-CHA, one hour at 25°C
T1 construct: Whole brain minus cerebellum and brainstem from male Long Evans rats (150-200 g) was homogenized; from tissue; host or cells: rat whole brain minus cerebellum and brainstem (membrane homogenate)
T1 sequence (P25099 1-326): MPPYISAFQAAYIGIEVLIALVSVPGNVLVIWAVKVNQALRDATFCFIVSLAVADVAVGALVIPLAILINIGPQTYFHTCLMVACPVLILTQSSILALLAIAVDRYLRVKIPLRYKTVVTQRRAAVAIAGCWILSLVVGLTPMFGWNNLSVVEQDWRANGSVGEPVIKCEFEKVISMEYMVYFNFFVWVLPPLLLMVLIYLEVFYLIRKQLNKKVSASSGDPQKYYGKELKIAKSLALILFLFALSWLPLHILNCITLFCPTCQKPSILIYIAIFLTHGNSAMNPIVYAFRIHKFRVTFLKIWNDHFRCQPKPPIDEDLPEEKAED
Description: Whole brain minus cerebellum and brainstem from male Long Evans rats (150-200 g) was homogenized in 30 volumes of ice-cold 0.05 M Tris-HCI buffer pH 7.7 using a Brinkman Polytron PT-10, (setting number 6 for 20 seconds) and centrifuged for ten minutes at 20,000 x g (Sorvall RC-2), 4°C. The supernatant was discarded, and the pellet was resuspended and centrifuged as before. The pellet was resuspended in 20 ml Tris-HCI buffer containing two International Units/ml of adenosine deaminase (Sigma Type III from calf intestinal mucosa), incubated at 37°C for 30 minutes, then subsequently at 0°C for ten minutes. The homogenate was again centrifuged, and the final pellet was resuspended in ice-cold 0.05 M Tris-HCI buffer pH 7.7 to a concentration of 20 mg/ml original wet tissue weight and used immediately.
Tissue homogenate (10 mg/ml) was incubated in 0.05 M Tris-HCI buffer pH 7.7 containing 1.0 nM [^3H]-N^6-cyclohexyladenosine (^3H]-CHA) with or without test agents in triplicate for one hour at 25°C. Incubation volume was 2 ml. Unbound [^3H]-CHA was separated by rapid filtration under reduced pressure through Whatman glass fiber (GF/B) filters. The filters were rinsed three times with 5 ml of ice cold 0.05 M Tris-HCI buffer pH 7.7. The radio-labele ligand retained on the filter was measured by liquid scintillation spectrophotometry after shaking the filters for one hour or longer on a mechanical shaker in 10 ml of Beckman Ready-Solv HP scintillation cocktail.
Nonspecific binding was defined as the binding which occurred in the presence of 1 mM theophylline. The concentration of test agent which inhibited 50% of the specific binding (IC50) was determined by nonlinear computer curve fit. The Scatchard plot was calculated by linear regression of the line obtained by plotting the amount of radioligand bound (pmoles/gram of tissue) versus
• bound radioligand • free radioligand Since the amount of radioligand bound was a small fraction of the total amount added, free radioligand was defined as the concentration (nM) of radioligand added to the incubation mixture. The Hill coefficient was calculated by linear regression of the line obtained by plotting the log of the bound radioligand vs the log of the • bound radioligand • Bmax - bound radioligand • The maximal number of binding sites (Bmax) was calculated from the Scatchard plot.

Carrageenan pleurisy = assay: Carrageenan Pleurisy Assay; format: in vivo; conditions: IP route, rat
Description: Assessment of another activity is provided by the carrageenan pleurisy assay. This assay indicates antiinflammatory activity. Carrageenan pleurisy is induced as previously described by Carter, G. W., et al., in J. Pharm. Pharmacol 34:66-67, 1982. Carrageenan ([…]) is injected intrapleurally in a 0.25 ml volume of pyrogen-free saline. Four hours later, the rats are sacrificed and 2 ml of a phenol red solution (325 mg phenol red in 1 liter of 0.05 M phosphate buffered saline) are added to each pleural cavity. The contents of the cavities are mixed and transferred to glass test tubes. A 50 pl aliquot is removed from each tube and exudate cells are counted after red blood cells lysis (with Zapoglobin; Coulter Electronics, Hialeah FL) using a Coulter model ZBI counter. The remaining exudate-phenol red mixture is centrifuged at […] for 15 minutes. One hundred pl of the supernatent fluid is diluted with 3.9 ml of phosphate buffer (0.072 M of tribasic sodium phosphate Na3PO4·12H2O, in water) and the absorbance is measured at 650 nm.
Exudate volume is calculated as follows: [formula] where V1 = unknown volume of exudate, V2 = volume of dye added to cavity (2 ml), A1 = absorbance of exudate (assumed to be zero), A2 = absorbance of the phenol red solution, A3 = absorbance of exudate and phenol red solution.
Inhibition of exudate or formation is calculated by the following equations: • % inhibition (exudate) = [formula] • % inhibition (cell count) = [formula] ID50 values are calculated by Probit analysis.
The compound of Example 1 was adminstered one hour prior to carrageenan injection.

COc1ccc2c(c1)OCC(Nc1ncnc3c1ncn3[C@@H]1O[C@H](CO)[C@@H](O)[C@H]1O)C2 (stereo partly shown) [Example 3]
IC50 (adenosine A1 receptor): 14.2 nM

COc1cc(OC)c2c(c1)OC(C)(C)CC2Nc1ncnc2c1ncn2[C@@H]1O[C@H](CO)[C@@H](O)[C@H]1O (stereo partly shown) [Example 14]
IC50 (adenosine A1 receptor): 4930 nM

CC(C)(C)c1ccc2c(c1)OCC(Nc1ncnc3c1ncn3[C@@H]1O[C@H](CO)[C@@H](O)[C@H]1O)C2 (stereo partly shown) [Example 13, N^6-[7-t-Butyl-3-chromanylamino)adenosine]
IC50 (adenosine A1 receptor): 160 nM

Cc1ccc2c(c1C)OC(C)C(Nc1ncnc3c1ncn3[C@@H]1O[C@H](CO)[C@@H](O)[C@H]1O)C2 (stereo partly shown) [Example 11]
IC50 (adenosine A1 receptor): 32 nM

Cc1cc2c(cc1C)OCC(Nc1ncnc3c1ncn3[C@@H]1O[C@H](CO)[C@@H](O)[C@H]1O)C2 (stereo partly shown) [Example 9, N^6-[6,7-Dimethyl-3-chromanylamino]adenosine]
IC50 (adenosine A1 receptor): 8.1 nM | % Inhibition Exudate (Carrageenan pleurisy; 3 mg/kg): 12.5% | % Inhibition WBC (Carrageenan pleurisy; 3 mg/kg): 13.0% | % Inhibition Exudate (Carrageenan pleurisy; 30 mg/kg): 31.9% | % Inhibition WBC (Carrageenan pleurisy; 30 mg/kg): 30.6%

O=S1(=O)CCC(Nc2ncnc3c2ncn3[C@@H]2O[C@H](CO)[C@@H](O)[C@H]2O)c2ccccc21 (stereo partly shown) [Example 16, N^6-[4-Benzothiopyran-1,1-dioxideamino]adenosine]
IC50 (adenosine A1 receptor): 622 nM

COc1ccc2c(c1)CC(Nc1ncnc3c1ncn3[C@@H]1O[C@H](CO)[C@@H](O)[C@H]1O)CO2 (stereo partly shown) [Example 6]
IC50 (adenosine A1 receptor): 4.9 nM | % Inhibition Exudate (Carrageenan pleurisy; 1 mg/kg): 50.9% | % Inhibition WBC (Carrageenan pleurisy; 1 mg/kg): 49.8% | % Inhibition Exudate (Carrageenan pleurisy; 3 mg/kg): 42.2% | % Inhibition WBC (Carrageenan pleurisy; 3 mg/kg): 37.5%

OC[C@H]1O[C@@H](n2cnc3c(NC4COc5ccccc5C4)ncnc32)[C@H](O)[C@@H]1O (stereo partly shown) [Example 4, N^6-[3-Chromanylamino]adenosine]
IC50 (adenosine A1 receptor): 20 nM

OC[C@H]1O[C@@H](n2cnc3c(NC4COc5c(Cl)cccc5C4)ncnc32)[C@H](O)[C@@H]1O (stereo partly shown) [Example 5]
IC50 (adenosine A1 receptor): 17 nM | % Inhibition Exudate (Carrageenan pleurisy; 3 mg/kg): 22.7% | % Inhibition WBC (Carrageenan pleurisy; 3 mg/kg): 27.2% | % Inhibition Exudate (Carrageenan pleurisy; 10 mg/kg): 40.2% | % Inhibition WBC (Carrageenan pleurisy; 10 mg/kg): 68.0%

C[C@H]1Oc2ccccc2C[C@@H]1Nc1ncnc2c1ncn2[C@@H]1O[C@H](CO)[C@@H](O)[C@H]1O (relative stereo) [Example 8, N^l-[trans-2-Methyl,-3-chromanylamino]adenosine]
IC50 (adenosine A1 receptor): 45 nM

CC1Oc2ccccc2CC1Nc1ncnc2c1ncn2C1OC(CO)C(O)C1O (stereo not drawn) [Example 7, N^6-[cis-2-Methyl-3-chromanylamino]adenosine]
IC50 (adenosine A1 receptor): 7.8 nM

OC[C@H]1O[C@@H](n2cnc3c(NC4CCOc5ccccc54)ncnc32)[C@H](O)[C@@H]1O (stereo partly shown) [Example 1]
IC50 (adenosine A1 receptor): 88 nM

OC[C@H]1O[C@@H](n2cnc3c(NC4CSc5ccccc5C4)ncnc32)[C@H](O)[C@@H]1O (stereo partly shown) [Example 2]
IC50 (adenosine A1 receptor): 6.33 nM

OC[C@H]1O[C@@H](n2cnc3c(NC4CCSc5ccccc54)ncnc32)[C@H](O)[C@@H]1O (stereo partly shown) [Example 15]
IC50 (adenosine A1 receptor): 56.2 nM | % Inhibition Exudate (Carrageenan pleurisy; 1 mg/kg): 13.5% | % Inhibition WBC (Carrageenan pleurisy; 1 mg/kg): -10.7% | % Inhibition Exudate (Carrageenan pleurisy; 10 mg/kg): 63.9% | % Inhibition WBC (Carrageenan pleurisy; 10 mg/kg): -16.9%

Cc1ccc2c(c1C)OCC(Nc1ncnc3c1ncn3[C@@H]1O[C@H](CO)[C@@H](O)[C@H]1O)C2 (stereo partly shown) [Example 10, N^6-[7,8-Dimethyl-3-chromanylamino]adenosine]
IC50 (adenosine A1 receptor): 27 nM

Source: patent publication EP0181109B1, “N6-benzopyrano- and benzothiopyrano-adenosines” (WARNER-LAMBERT COMPANY, priority 1984, dated 1986)
